Measured values published in paper PMC11400957 (The Journal of Biological Chemistry, 2024).

Target: IpaD^WT (full-length) (Shigella flexneri, UniProt P18013)
Test: CD thermal unfolding at […] nm
Format: binding
Conditions: 1 mM DOC, PBS pH 7.4, 0.5 mg/ml protein; absolute Tm with ligand, not a shift; nonspecific detergent effect not excluded

IpaD^WT (full-length), sequence (P18013 whole entry): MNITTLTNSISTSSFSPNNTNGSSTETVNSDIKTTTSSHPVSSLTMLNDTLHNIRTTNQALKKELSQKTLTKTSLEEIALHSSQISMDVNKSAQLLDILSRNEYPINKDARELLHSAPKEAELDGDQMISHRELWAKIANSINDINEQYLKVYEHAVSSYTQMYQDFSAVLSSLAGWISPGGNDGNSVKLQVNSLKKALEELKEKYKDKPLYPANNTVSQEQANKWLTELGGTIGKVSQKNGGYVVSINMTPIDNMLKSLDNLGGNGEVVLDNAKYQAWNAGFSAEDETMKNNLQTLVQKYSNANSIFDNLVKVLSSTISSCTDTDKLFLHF

## C[C@H](CCC(=O)O)[C@H]1CC[C@H]2[C@@H]3CC[C@@H]4C[C@H](O)CC[C@]4(C)[C@H]3C[C@H](O)[C@]12C [deoxycholate]
  Tm ^b (°C ± SD) / +DOC: 77 ± 1 °C
